{"source": "paper PMC13379419", "about": "“Integrating high-fidelity hiPSC-cardiomyocytes with AI-driven modeling for enhanced proarrhythmic risk assessment” (Archives of Toxicology, 2026)", "origin": "cited, not measured here", "design": "method as in none printed", "details": "clinical maximum plasma concentration"}
{"smiles": "C=C[C@H]1C[N@@]2CC[C@H]1C[C@@H]2[C@@H](O)c1ccnc2ccc(OC)cc12", "note": "[Quinidine]", "values": [{"measurement": "Cmax", "value": 3000, "unit": "nM"}]}
